Laboratory results: PubChem BioAssay (NCI)
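These data come from cells grown in 96-well plates and exposed to compound for 48 hours at five concentrations. GI50: concentration for 50% inhibition of growth. TGI: total growth inhibition.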

What was measured:
Assay in all cases: NCI tumour cell line growth inhibition, 48 h
IGROV1 ovarian = tested on: IGROV1 ovarian
K-562 leukemia = tested on: K-562 leukemia
OVCAR-4 ovarian = tested on: OVCAR-4 ovarian
SF-539 CNS = tested on: SF-539 CNS
U251 CNS = tested on: U251 CNS
UACC-62 melanoma = tested on: UACC-62 melanoma
UO-31 renal = tested on: UO-31 renal
RXF 393 renal = tested on: RXF 393 renal
PC-3 prostate = tested on: PC-3 prostate
BT-549 breast = tested on: BT-549 breast

Cc1cccc(NC(=O)/C=C/c2ccc(N(CCC#N)CCC#N)cc2C)c1
TGI (IGROV1 ovarian): > 100 µM
TGI (K-562 leukemia): > 100 µM
TGI (OVCAR-4 ovarian): > 100 µM
TGI (SF-539 CNS): > 100 µM
TGI (U251 CNS): > 100 µM
TGI (UACC-62 melanoma): > 100 µM
TGI (UO-31 renal): > 100 µM

O=C(/C=C/c1c(O)ccc2ccccc12)c1ccc2ccccc2c1
TGI (IGROV1 ovarian): > 100 µM
TGI (K-562 leukemia): > 100 µM
TGI (OVCAR-4 ovarian): > 100 µM
TGI (RXF 393 renal): > 100 µM
TGI (SF-539 CNS): > 100 µM
TGI (U251 CNS): > 100 µM
TGI (UACC-62 melanoma): > 100 µM
TGI (UO-31 renal): > 100 µM

N#CC1Nc2ccccc2[C@@H](O)C1O (stereo partly specified)
TGI (IGROV1 ovarian): > 100 µM
TGI (K-562 leukemia): > 100 µM
TGI (OVCAR-4 ovarian): > 100 µM
TGI (PC-3 prostate): > 100 µM
TGI (RXF 393 renal): > 100 µM
TGI (SF-539 CNS): > 100 µM
TGI (U251 CNS): > 100 µM
TGI (UACC-62 melanoma): > 100 µM

O=C(CCC(=O)Nc1cccc(Cl)c1)CC(=O)c1ccc(Cl)cc1
TGI (IGROV1 ovarian): > 100 µM
TGI (K-562 leukemia): > 100 µM
TGI (OVCAR-4 ovarian): > 100 µM
TGI (SF-539 CNS): > 100 µM
TGI (UACC-62 melanoma): > 100 µM
TGI (UO-31 renal): > 100 µM

O=C(Nc1ccc([N+](=O)[O-])cc1)C1C(=O)C(=O)N(c2ccc([N+](=O)[O-])cc2)C1=O (stereo unspecified)
TGI (IGROV1 ovarian): > 100 µM
TGI (K-562 leukemia): > 100 µM
TGI (RXF 393 renal): > 100 µM
TGI (SF-539 CNS): > 100 µM
TGI (U251 CNS): > 100 µM
TGI (UACC-62 melanoma): 19.5 µM
TGI (UO-31 renal): > 100 µM

CCOC(=O)c1[nH]c(COC(C)=O)c(CCCOC(C)=O)c1CCCOC(C)=O
TGI (IGROV1 ovarian): > 100 µM
TGI (K-562 leukemia): > 100 µM
TGI (OVCAR-4 ovarian): > 100 µM
TGI (RXF 393 renal): > 100 µM
TGI (SF-539 CNS): > 100 µM
TGI (U251 CNS): > 100 µM

Nc1ccncc1/C=C1/C(=O)Nc2ccccc21
GI50 (BT-549 breast): 40.2 µM
TGI (BT-549 breast): > 100 µM
GI50 (IGROV1 ovarian): 29 µM
TGI (IGROV1 ovarian): > 100 µM
GI50 (K-562 leukemia): 33.6 µM
TGI (K-562 leukemia): > 100 µM
GI50 (OVCAR-4 ovarian): 33.4 µM
TGI (OVCAR-4 ovarian): > 100 µM
GI50 (PC-3 prostate): 41.1 µM
TGI (PC-3 prostate): > 100 µM
GI50 (SF-539 CNS): 34.6 µM
TGI (SF-539 CNS): > 100 µM
GI50 (U251 CNS): 47.9 µM
TGI (U251 CNS): > 100 µM
GI50 (UACC-62 melanoma): 32.5 µM
TGI (UACC-62 melanoma): > 100 µM
GI50 (UO-31 renal): 18.9 µM
TGI (UO-31 renal): > 100 µM

COc1ccccc1NC(=O)C1=C(C)NC(C)=C(C(=O)Nc2ccccc2OC)C1c1ccc([N+](=O)[O-])cc1
TGI (IGROV1 ovarian): > 100 µM
TGI (K-562 leukemia): > 100 µM
TGI (OVCAR-4 ovarian): > 100 µM
TGI (RXF 393 renal): > 100 µM
TGI (SF-539 CNS): > 100 µM
TGI (U251 CNS): > 100 µM
TGI (UACC-62 melanoma): > 100 µM

CCOC(=O)CCc1c(C)c2c(OC(C)=O)cc(OC(C)=O)cc2oc1=O
TGI (OVCAR-4 ovarian): > 100 µM
TGI (RXF 393 renal): 73.3 µM
TGI (SF-539 CNS): > 100 µM
TGI (U251 CNS): > 100 µM
TGI (UO-31 renal): > 100 µM

CCOC(=O)C1=C(C)N(N)C(=S)NC1c1ccc(C)cc1 (stereo unspecified)
TGI (BT-549 breast): 9.16 µM
GI50 (IGROV1 ovarian): 28.2 µM
TGI (IGROV1 ovarian): > 100 µM
GI50 (K-562 leukemia): 21.6 µM
TGI (K-562 leukemia): > 100 µM
GI50 (OVCAR-4 ovarian): 66 µM
TGI (OVCAR-4 ovarian): > 100 µM
GI50 (PC-3 prostate): 32.8 µM
TGI (PC-3 prostate): > 100 µM
GI50 (RXF 393 renal): 6.44 µM
TGI (RXF 393 renal): > 100 µM
GI50 (U251 CNS): 24.1 µM
TGI (U251 CNS): > 100 µM
GI50 (UACC-62 melanoma): 23.3 µM
TGI (UACC-62 melanoma): > 100 µM
GI50 (UO-31 renal): 23.5 µM
TGI (UO-31 renal): > 100 µM

O=C1CSC(Cc2nc3ccccc3[nH]2)=N1
TGI (IGROV1 ovarian): > 58.7 µM
TGI (K-562 leukemia): > 100 µM
TGI (OVCAR-4 ovarian): 41.6 µM
TGI (RXF 393 renal): 33.1 µM
TGI (SF-539 CNS): 43.1 µM
TGI (U251 CNS): 49 µM
TGI (UACC-62 melanoma): 37.7 µM
TGI (UO-31 renal): 35 µM

CSC1(CC(=O)N(C)C)C(=O)Nc2ccccc21 (stereo unspecified)
TGI (BT-549 breast): > 100 µM
TGI (IGROV1 ovarian): > 100 µM
TGI (K-562 leukemia): > 100 µM
TGI (OVCAR-4 ovarian): > 100 µM
TGI (PC-3 prostate): > 100 µM
TGI (SF-539 CNS): > 100 µM
TGI (U251 CNS): > 100 µM
TGI (UACC-62 melanoma): > 100 µM
TGI (UO-31 renal): > 100 µM

O/N=C\c1c(O)ccc2ccccc12
TGI (K-562 leukemia): > 100 µM
TGI (PC-3 prostate): > 100 µM
TGI (RXF 393 renal): > 100 µM
TGI (SF-539 CNS): > 100 µM
TGI (U251 CNS): > 100 µM
TGI (UACC-62 melanoma): > 100 µM

O=[N+]([O-])c1ccc(-n2nnc(C3=NCCCN3)c2-c2ccc(Cl)cc2)cc1
TGI (IGROV1 ovarian): > 100 µM
TGI (K-562 leukemia): > 100 µM
TGI (OVCAR-4 ovarian): > 100 µM
TGI (RXF 393 renal): > 100 µM
TGI (SF-539 CNS): > 100 µM
TGI (U251 CNS): > 100 µM
TGI (UACC-62 melanoma): > 100 µM
TGI (UO-31 renal): > 100 µM

O=C(CCC/C(CC(=O)c1ccc(Br)cc1)=N\O)Nc1ccccc1
TGI (IGROV1 ovarian): > 100 µM
TGI (OVCAR-4 ovarian): > 100 µM
TGI (RXF 393 renal): > 100 µM
TGI (U251 CNS): > 100 µM
TGI (UACC-62 melanoma): > 100 µM
TGI (UO-31 renal): > 100 µM

COC(=O)C12C3C4C5(C(=O)OC)C(C1C35C(=O)N(C(C)C)C(C)C)C42C(=O)N(C(C)C)C(C)C (stereo unspecified)
TGI (IGROV1 ovarian): > 50 µM
TGI (K-562 leukemia): > 50 µM
TGI (OVCAR-4 ovarian): > 50 µM
TGI (RXF 393 renal): > 50 µM
TGI (SF-539 CNS): > 50 µM
TGI (U251 CNS): > 50 µM
TGI (UACC-62 melanoma): > 50 µM
TGI (UO-31 renal): > 50 µM

O=C(CCCN1CC=C(n2c(=O)[nH]c3ccccc32)CC1)c1ccc(F)cc1
GI50 (BT-549 breast): 24.9 µM
TGI (BT-549 breast): 86.8 µM
GI50 (IGROV1 ovarian): > 100 µM
TGI (IGROV1 ovarian): > 100 µM
GI50 (K-562 leukemia): 29.3 µM
TGI (K-562 leukemia): > 100 µM
GI50 (OVCAR-4 ovarian): 30 µM
TGI (OVCAR-4 ovarian): > 100 µM
GI50 (PC-3 prostate): 29 µM
TGI (PC-3 prostate): > 100 µM
GI50 (RXF 393 renal): 19 µM
TGI (RXF 393 renal): > 100 µM
GI50 (UACC-62 melanoma): 42.7 µM
TGI (UACC-62 melanoma): > 100 µM
GI50 (UO-31 renal): 27.5 µM
TGI (UO-31 renal): > 100 µM

COc1cc2c(cc1OC)C13CCN4CC5=CCOC6CC(=O)N2C1C6C5CC43O (stereo unspecified)
TGI (BT-549 breast): > 100 µM
TGI (IGROV1 ovarian): > 100 µM
TGI (K-562 leukemia): > 100 µM
TGI (OVCAR-4 ovarian): > 100 µM
TGI (PC-3 prostate): > 100 µM
TGI (SF-539 CNS): > 100 µM
TGI (U251 CNS): > 100 µM
TGI (UACC-62 melanoma): > 100 µM
TGI (UO-31 renal): > 100 µM

NC1CCCC[C@H]1N.N[C@@H]1CCCC[C@@H]1N.O=C(P(=O)([O-])[O-])P(=O)([O-])[O-].[Pt+4].[Pt+4]
GI50 (IGROV1 ovarian): > 100 µM
TGI (IGROV1 ovarian): > 100 µM
GI50 (K-562 leukemia): 78.2 µM
TGI (K-562 leukemia): > 100 µM
GI50 (OVCAR-4 ovarian): > 100 µM
TGI (OVCAR-4 ovarian): > 100 µM
GI50 (RXF 393 renal): > 100 µM
TGI (RXF 393 renal): > 100 µM
GI50 (SF-539 CNS): > 100 µM
TGI (SF-539 CNS): > 100 µM
GI50 (U251 CNS): > 100 µM
TGI (U251 CNS): > 100 µM
GI50 (UACC-62 melanoma): > 100 µM
TGI (UACC-62 melanoma): > 100 µM
GI50 (UO-31 renal): > 100 µM
TGI (UO-31 renal): > 100 µM

CCN(CC)CCNCC(=O)Oc1ccc(/C=C/C(=O)CC(=O)/C=C/c2ccc(OC(=O)CNCCN(CC)CC)c(OC)c2)cc1OC
GI50 (BT-549 breast): 2.29 µM
TGI (BT-549 breast): 5.95 µM
GI50 (IGROV1 ovarian): 4.04 µM
TGI (IGROV1 ovarian): 8.94 µM
GI50 (K-562 leukemia): 28.7 µM
TGI (K-562 leukemia): > 100 µM
GI50 (OVCAR-4 ovarian): 8.67 µM
TGI (OVCAR-4 ovarian): > 100 µM
GI50 (PC-3 prostate): 4.69 µM
TGI (PC-3 prostate): > 100 µM
GI50 (SF-539 CNS): 2.59 µM
TGI (SF-539 CNS): 6.74 µM
GI50 (U251 CNS): 3.83 µM
TGI (U251 CNS): 16.2 µM
GI50 (UACC-62 melanoma): 2.73 µM
TGI (UACC-62 melanoma): 7.8 µM
GI50 (UO-31 renal): 3.48 µM
TGI (UO-31 renal): 11 µM

COc1cc2c(cc1OCc1ccccc1)CNCC2
TGI (IGROV1 ovarian): > 100 µM
TGI (K-562 leukemia): > 100 µM
TGI (OVCAR-4 ovarian): > 100 µM
TGI (RXF 393 renal): > 100 µM
TGI (SF-539 CNS): > 100 µM
TGI (U251 CNS): > 100 µM
TGI (UACC-62 melanoma): > 100 µM
TGI (UO-31 renal): > 100 µM

CC(C)(C)C(=O)/C=C/c1ccc(Oc2ccccc2)cc1
TGI (IGROV1 ovarian): > 100 µM
TGI (K-562 leukemia): 36 µM
TGI (RXF 393 renal): 52.8 µM
TGI (U251 CNS): 28.4 µM
TGI (UO-31 renal): 54.3 µM
